In ChEMBL document CHEMBL2021812, “Aryltriflates as a Neglected Moiety in Medicinal Chemistry: A Case Study from a Lead Optimization of CXCL8 Inhibitors” (ACS Med Chem Lett, 2011):
The source made the active and inactive calls. No cut-off for these calls is given here.

Tests used:
[1] = Metabolic stability in rat liver microsomes assessed as compound remaining at 1 uM preincubated for 10 mins measured after 30 mins; format: ADME, Microsome; details: read-out: Stability
[2] = biological target: T1, C-X-C chemokine receptor type 2 (Homo sapiens) (UniProt P25025); assay: Inhibition of CXCR2 in human polymorphonucleate cells assessed as inhibition of CXCL1-induced chemotaxis at 10^-8 M incubated for 15 mins prior to CXCL1-induction measured after 45 mins
T1 sequence (whole entry): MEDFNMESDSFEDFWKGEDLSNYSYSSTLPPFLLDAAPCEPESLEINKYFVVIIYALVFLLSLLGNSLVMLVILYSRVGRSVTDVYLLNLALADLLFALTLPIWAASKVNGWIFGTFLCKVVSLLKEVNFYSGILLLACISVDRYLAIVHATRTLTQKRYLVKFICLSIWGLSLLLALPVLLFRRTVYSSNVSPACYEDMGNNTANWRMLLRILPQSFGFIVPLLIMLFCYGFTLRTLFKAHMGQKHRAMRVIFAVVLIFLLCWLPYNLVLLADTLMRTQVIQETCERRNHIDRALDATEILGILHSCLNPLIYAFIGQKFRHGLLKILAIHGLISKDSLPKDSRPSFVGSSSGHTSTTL

[3] = Chemical stability of the compound assessed as compound remaining at pH 7.4 after 2 hrs; format: physicochemical; details: buffer, read-out: Stability
[4] = Metabolic stability in rat plasma assessed as compound remaining at 1 uM after 1 hr; format: ADME, cell-free; details: read-out: Stability
[5] = Half life in iv dosed rat plasma; format: ADME, organism-based
[6] = biological target: Interleukin-8 receptors, CXCR1/CXCR2 (Homo sapiens) (UniProt P25025+P25024); assay: Inhibition of CXCR1/2 in human polymorphonucleate cells assessed as inhibition of CXCL8-induced chemotaxis at 10^-8 M incubated for 15 mins prior to CXCL8-induction measured after 45 mins
Interleukin-8 receptors, CXCR1/CXCR2 (Homo sapiens), sequence (P25024 whole entry, looked up, one chain of several): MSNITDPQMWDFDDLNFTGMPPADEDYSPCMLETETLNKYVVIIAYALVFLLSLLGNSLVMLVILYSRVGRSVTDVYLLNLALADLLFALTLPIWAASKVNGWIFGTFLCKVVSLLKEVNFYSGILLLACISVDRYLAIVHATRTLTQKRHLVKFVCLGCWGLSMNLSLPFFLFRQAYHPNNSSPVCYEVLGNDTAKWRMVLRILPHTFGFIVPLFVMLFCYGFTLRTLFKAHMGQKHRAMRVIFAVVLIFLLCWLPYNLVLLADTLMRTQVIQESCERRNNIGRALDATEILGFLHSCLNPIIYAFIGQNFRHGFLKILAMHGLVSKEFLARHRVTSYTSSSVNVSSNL

CYP2C19 = CYP2C19 (Homo sapiens, UniProt P33261); assay: Inhibition of CYP2C19 using DBF as substrate at 10 uM; format: ADME; details: probe DBF
CYP2C19, sequence (P33261 whole entry): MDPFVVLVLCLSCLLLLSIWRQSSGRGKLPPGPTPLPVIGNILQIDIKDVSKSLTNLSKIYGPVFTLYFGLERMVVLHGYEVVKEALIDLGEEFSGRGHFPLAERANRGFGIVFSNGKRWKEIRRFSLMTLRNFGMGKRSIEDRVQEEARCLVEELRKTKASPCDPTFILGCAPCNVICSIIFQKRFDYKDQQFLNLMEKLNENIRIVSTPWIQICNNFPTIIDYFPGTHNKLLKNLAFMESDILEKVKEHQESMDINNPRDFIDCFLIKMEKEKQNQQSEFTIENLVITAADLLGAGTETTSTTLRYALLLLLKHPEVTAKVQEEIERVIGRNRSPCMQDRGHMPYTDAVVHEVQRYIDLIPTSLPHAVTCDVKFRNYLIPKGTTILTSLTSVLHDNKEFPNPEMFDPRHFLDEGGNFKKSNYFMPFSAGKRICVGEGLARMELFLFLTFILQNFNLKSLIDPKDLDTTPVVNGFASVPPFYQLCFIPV

CYP3A4 = CYP3A4 (Homo sapiens, UniProt P08684); assay: Inhibition of CYP3A4 using BFC as substrate at 10 uM; format: ADME; details: probe BFC
CYP3A4, sequence (P08684 whole entry): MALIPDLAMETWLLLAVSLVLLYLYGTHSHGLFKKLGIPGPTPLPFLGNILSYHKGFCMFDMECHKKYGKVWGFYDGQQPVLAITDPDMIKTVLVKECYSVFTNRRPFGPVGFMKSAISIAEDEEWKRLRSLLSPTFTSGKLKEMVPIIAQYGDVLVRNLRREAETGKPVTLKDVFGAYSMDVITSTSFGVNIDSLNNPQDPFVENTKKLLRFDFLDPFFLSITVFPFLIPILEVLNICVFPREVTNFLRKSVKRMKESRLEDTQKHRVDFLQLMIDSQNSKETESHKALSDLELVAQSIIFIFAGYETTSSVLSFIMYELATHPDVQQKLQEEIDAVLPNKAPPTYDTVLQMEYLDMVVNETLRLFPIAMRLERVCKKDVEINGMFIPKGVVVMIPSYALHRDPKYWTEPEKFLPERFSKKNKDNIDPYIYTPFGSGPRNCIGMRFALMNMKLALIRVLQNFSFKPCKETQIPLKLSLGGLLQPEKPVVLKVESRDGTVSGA

CYP2D6 = CYP2D6 (Homo sapiens, UniProt P10635); assay: Inhibition of CYP2D6 using AMMC as substrate at 10 uM; format: ADME; details: probe AMMC
CYP2D6, sequence (P10635 whole entry): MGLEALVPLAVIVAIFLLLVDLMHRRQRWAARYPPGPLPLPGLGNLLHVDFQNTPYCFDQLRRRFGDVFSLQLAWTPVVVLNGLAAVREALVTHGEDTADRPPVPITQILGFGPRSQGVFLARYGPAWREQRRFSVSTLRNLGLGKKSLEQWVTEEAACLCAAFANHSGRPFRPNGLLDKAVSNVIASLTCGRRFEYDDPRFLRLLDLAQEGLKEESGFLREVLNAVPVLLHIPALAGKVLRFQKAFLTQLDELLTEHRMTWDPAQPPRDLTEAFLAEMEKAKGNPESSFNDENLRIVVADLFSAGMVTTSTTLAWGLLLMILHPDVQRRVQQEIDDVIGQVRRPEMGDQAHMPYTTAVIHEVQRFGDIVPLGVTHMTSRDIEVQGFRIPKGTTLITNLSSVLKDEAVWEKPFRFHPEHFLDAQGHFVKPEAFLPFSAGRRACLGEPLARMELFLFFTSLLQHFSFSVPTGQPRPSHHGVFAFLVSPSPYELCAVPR

CYP1A2 = biological target: T2, CYP1A2 (Homo sapiens, UniProt P05177); assay: Inhibition of CYP1A2 using CEC as substrate at 10 uM; format: ADME; details: probe CEC
T2 sequence (P05177 whole entry): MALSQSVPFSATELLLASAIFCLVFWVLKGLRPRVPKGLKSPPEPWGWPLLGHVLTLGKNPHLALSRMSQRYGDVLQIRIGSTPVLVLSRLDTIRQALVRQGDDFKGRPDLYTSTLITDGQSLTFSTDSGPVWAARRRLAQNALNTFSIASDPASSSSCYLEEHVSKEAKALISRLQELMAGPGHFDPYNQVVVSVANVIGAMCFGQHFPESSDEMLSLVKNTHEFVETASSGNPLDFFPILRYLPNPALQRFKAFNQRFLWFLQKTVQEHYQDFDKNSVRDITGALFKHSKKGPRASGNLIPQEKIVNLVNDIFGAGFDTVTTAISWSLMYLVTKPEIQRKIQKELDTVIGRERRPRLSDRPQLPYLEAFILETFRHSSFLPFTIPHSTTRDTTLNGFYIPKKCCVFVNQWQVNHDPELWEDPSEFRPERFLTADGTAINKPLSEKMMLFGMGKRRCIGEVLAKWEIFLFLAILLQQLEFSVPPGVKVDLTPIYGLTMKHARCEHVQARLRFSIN

CYP2C9 = CYP2C9 (Homo sapiens, UniProt P11712); assay: Inhibition of CYP2C9 using 7MFC as substrate at 10 uM; format: ADME; details: probe 7MFC
CYP2C9, sequence (P11712 whole entry): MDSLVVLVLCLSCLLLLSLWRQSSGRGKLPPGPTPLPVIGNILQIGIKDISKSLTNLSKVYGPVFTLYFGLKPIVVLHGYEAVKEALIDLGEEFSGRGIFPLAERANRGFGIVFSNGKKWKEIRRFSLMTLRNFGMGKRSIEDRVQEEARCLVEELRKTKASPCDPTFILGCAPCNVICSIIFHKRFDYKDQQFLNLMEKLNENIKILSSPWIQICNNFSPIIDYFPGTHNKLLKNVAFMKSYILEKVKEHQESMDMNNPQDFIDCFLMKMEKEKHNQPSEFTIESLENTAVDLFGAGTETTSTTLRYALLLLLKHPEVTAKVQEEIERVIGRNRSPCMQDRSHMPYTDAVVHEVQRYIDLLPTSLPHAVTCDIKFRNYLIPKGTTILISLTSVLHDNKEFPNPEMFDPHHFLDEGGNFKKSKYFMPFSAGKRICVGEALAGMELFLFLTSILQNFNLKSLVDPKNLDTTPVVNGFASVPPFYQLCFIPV

[7] = Elimination half life in Sprague-Dawley rat at 14 mg/kg, iv; format: ADME, organism-based; design: dose 14 mg/kg, route intravenous; details: in vivo, read-out: beta t1/2 (converted)

SMILES | remaining at 0.5 h, 1 µM [1] [%] | inhibition [2] | remaining at 2 h [3] [%] | remaining at 1 h, 1 µM [4] [%] | half-life [5] [min] | inhibition [6] | inhibition at 10 µM (CYP2C19) [%] | inhibition at 10 µM (CYP3A4) [%] | inhibition at 10 µM (CYP2D6) [%] | inhibition at 10 µM (CYP1A2) [%] | inhibition at 10 µM (CYP2C9) [%] | half-life [7] [min]
Cc1csc(NC(=O)[C@H](C)c2ccc(OS(=O)(=O)C(F)(F)F)cc2)n1 |  | 50% |  |  |  | 58% | 90 | 60 | < 5 | 16 | 60 | 
C[C@@H](C(=O)NOCC1CC1)c1ccc(OS(=O)(=O)C(F)(F)F)cc1 |  | 35% |  |  |  | 40% |  |  |  |  |  | 
C[C@@H](C(=O)Nc1nccs1)c1ccc(OS(=O)(=O)C(F)(F)F)cc1 |  | 55% |  |  |  | 56% | 87 | 52 | 26 | 36 | 53 | 
C[C@@H](C(=O)Nc1ccccn1)c1ccc(OS(=O)(=O)C(F)(F)F)cc1 |  | 45% |  |  |  | 43% | 97 | 15 | 21 | < 5 | 37 | 
CC(C)Cc1ccc([C@@H](C)C(=O)NS(C)(=O)=O)cc1 [REPARIXIN] |  | 22% |  |  |  | 68% |  |  |  |  |  | 45

Now from value to compound:

remaining at 0.5 h, 1 µM [1] [%] | inhibition [2] | remaining at 2 h [3] [%] | remaining at 1 h, 1 µM [4] [%] | half-life [5] [min] | inhibition [6] | inhibition at 10 µM (CYP2C19) [%] | inhibition at 10 µM (CYP3A4) [%] | inhibition at 10 µM (CYP2D6) [%] | inhibition at 10 µM (CYP1A2) [%] | inhibition at 10 µM (CYP2C9) [%] | half-life [7] [min] | SMILES
87 | 49% | > 98 | 85 | < 60 | 50% |  |  |  |  |  |  | C[C@@H](C(=O)NO)c1ccc(OS(=O)(=O)C(F)(F)F)cc1
80 | 56% |  |  |  | 58% |  |  |  |  |  |  | C[C@@H](C(N)=O)c1ccc(OS(=O)(=O)C(F)(F)F)cc1
65 | 46% | > 98 | 90 | < 60 | 56% |  |  |  |  |  |  | CONC(=O)[C@H](C)c1ccc(OS(=O)(=O)C(F)(F)F)cc1
 | inactive |  |  |  | inactive |  |  |  |  |  |  | C[C@H](C(=O)O)c1ccc(OS(=O)(=O)C(F)(F)F)cc1
75 | 65% |  |  |  | 58% |  |  |  |  |  |  | CC(C)NC(=O)[C@H](C)c1ccc(OS(=O)(=O)C(F)(F)F)cc1
 | inactive |  |  |  | inactive |  |  |  |  |  |  | C[C@H](C(=O)NS(C)(=O)=O)c1ccc(OS(=O)(=O)C(F)(F)F)cc1
